Counter-ions that a name gives are not always drawn. Like-named read-outs stand apart in the source and are kept apart here. Numbered stars: 1 amine (or outer) side, 2 acyl side, 3 side chain; on linkers, the order of the positions; unused ones are H or OH. Square brackets hold non-standard residues; d marks the D form. Peptide text beside a SMILES is read from it. * marks the point of attachment. X5 = CC(C)(C)OC(=O)CN1CCN([*:1])[C@H](C(=O)[*:2])C1; X8 = Cn1c[n+](C)cc1C[C@@H](N[*:1])C(=O)[*:2]; dPiz(1,6-dehydro) = O=C(O)[C@H]1CCC=NN1; d2Nal = N[C@H](Cc1ccc2ccccc2c1)C(=O)O; dNMeY = CN[C@H](Cc1ccc(O)cc1)C(=O)O; X3 = O=C([C@@H]1C=CCCN1[*:1])[*:2]; Pip(4-aza) = O=C(O)[C@@H]1CNCCN1; dNMeF = CN[C@H](Cc1ccccc1)C(=O)O; dPip(4-aza) = O=C(O)[C@H]1CNCCN1; Pip = O=C(O)[C@@H]1CCCCN1; dPip = O=C(O)[C@H]1CCCCN1; Nle = CCCC[C@H](N)C(=O)O; Orn = NCCC[C@H](N)C(=O)O; Cbz = O=C(OCc1ccccc1)*; Boc = CC(C)(C)OC(=O)*
What was measured:
[1] = biological target: T1, AVP-V1 sites (Rattus norvegicus, UniProt P30560); experiment: [^3 H]AVP binding to crude membrane preparation of male rat liver (AVP-V1 sites)
T1 construct: crude membrane preparation of male rat liver (AVP-V1 sites); from tissue; host or cells: male rat liver, crude membranes
T1 sequence (P30560 whole entry): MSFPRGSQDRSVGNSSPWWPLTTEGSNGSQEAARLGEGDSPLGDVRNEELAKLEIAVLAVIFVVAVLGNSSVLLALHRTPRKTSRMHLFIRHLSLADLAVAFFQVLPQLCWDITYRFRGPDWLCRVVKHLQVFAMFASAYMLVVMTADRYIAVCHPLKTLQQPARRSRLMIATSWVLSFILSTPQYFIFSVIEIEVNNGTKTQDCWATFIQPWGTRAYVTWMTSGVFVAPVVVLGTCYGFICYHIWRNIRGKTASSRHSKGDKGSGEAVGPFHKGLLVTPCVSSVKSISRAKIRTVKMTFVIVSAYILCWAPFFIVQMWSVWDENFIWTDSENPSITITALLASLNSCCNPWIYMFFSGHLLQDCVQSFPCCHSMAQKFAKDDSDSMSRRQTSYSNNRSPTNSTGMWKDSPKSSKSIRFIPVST
Procedure: (§1) Nonspecific binding (5-10% of the total binding) was determined using 10 μM unlabeled AVP, and the binding reaction was terminated by filtration as described above for the [^3 H]OT binding assay.

[2] = biological target: T2, AVP-V2 sites (Rattus norvegicus, UniProt Q00788); experiment: [^3 H]AVP binding to crude membrane preparation of male rat kidney medulla (AVP-V2 sites)
T2 construct: male rat liver (AVP-V1 sites) or kidney medulla (AVP-V2 sites); from tissue; host or cells: male rat kidney medulla, crude membranes
T2 sequence (Q00788 whole entry): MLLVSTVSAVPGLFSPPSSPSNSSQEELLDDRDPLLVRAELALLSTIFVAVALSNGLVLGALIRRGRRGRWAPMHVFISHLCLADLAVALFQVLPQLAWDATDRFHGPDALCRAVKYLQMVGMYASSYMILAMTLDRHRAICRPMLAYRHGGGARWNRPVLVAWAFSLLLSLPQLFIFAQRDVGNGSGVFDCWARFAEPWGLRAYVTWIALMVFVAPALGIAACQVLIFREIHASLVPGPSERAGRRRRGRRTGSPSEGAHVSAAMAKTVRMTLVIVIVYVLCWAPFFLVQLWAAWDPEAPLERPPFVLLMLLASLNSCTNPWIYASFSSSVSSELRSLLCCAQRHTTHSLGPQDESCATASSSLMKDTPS
Procedure: as §1

[3] = biological target: T3, uterine OT receptors (Rattus norvegicus, UniProt P70536); experiment: [^3 H]OT binding to uterine OT receptors, crude membrane preparation of uteri from DES-treated rats
T3 construct: from tissue; host or cells: uterus of DES-treated rats, crude membranes
T3 sequence (P70536 1-388): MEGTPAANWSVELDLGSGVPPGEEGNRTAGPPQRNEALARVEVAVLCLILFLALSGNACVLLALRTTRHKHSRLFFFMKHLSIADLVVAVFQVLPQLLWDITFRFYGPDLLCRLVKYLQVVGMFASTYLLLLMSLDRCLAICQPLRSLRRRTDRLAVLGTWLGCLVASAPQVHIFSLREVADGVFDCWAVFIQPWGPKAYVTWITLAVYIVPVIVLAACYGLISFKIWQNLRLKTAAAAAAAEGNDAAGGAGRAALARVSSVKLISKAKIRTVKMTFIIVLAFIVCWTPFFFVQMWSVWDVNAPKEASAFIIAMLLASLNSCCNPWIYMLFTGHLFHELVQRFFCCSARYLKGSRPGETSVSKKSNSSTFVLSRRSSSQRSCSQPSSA
Procedure: Competition studies were conducted at equilibrium (60 minutes; 22° C.) using 1 nM [^3 H]OT in the following assay buffer: 50 mM Tris-HCl, 5 mM MgCl2, and 0.1% BSA, pH 7.4.

[4] = read-out: Receptor Binding Results IC50 (nM) [^3 H]-AVP-V1
[5] = rat kidney medulla membranes, 2 nM [^3 H]AVP, read-out: Receptor Binding Results IC50 (nM) [^3 H]-AVP-V2
[6] = read-out: Receptor Binding Results IC50 (nM) [^3 H]-AVP-V2
[7] = rat uterus membranes, 1 nM [^3 H]OT, read-out: Receptor Binding Results IC50 (nM) [^3 H]OT
[8] = Receptor Binding Results IC50 (nM) [^3 H]-AVP-V1
[9] = Receptor Binding Results IC50 (nM) [^3 H]-AVP-V2

| Structure (SMILES) | IC50 [1, 4] [nM] | IC50 [2, 5] [nM] | IC50 [3, 7] [nM] | IC50 [1, 8] [nM] | also measured |
| --- | --- | --- | --- | --- | --- |
| CC[C@H](C)[C@@H]1NC(=O)[C@@H](Cc2c[nH]c3ccccc23)NC(=O)[C@@H]2CCCN2C(=O)[C@@H](Cc2cnc[nH]2)NC(=O)[C@@H]2CCCCN2C(=O)[C@H]2CCC=NN2C1=O [Example 184, c-[D-Tryptophanyl-L-isoleucinyl-D-Δ-piperazyl-L-pipecolyl-D-histidyl-L-prolyl]] (cyclo(I[dPiz(1,6-dehydro)][Pip][dH]P[dW])) | 3980 | 1050 | – | – | IC50 ([3]; Receptor Binding Results IC50 (nM) [^3 H]OT): 6 nM |
| CC[C@H](C)[C@@H]1NC(=O)[C@@H](Cc2ccc3ccccc3c2)NC(=O)[C@@H]2CCCN2C(=O)[C@@H](Cc2ccccc2)N(C)C(=O)[C@@H]2CNCCN2C(=O)[C@H]2CCCCN2C1=O [Example 171, c-[D-2-Naphthylalanyl-L-isoleucinyl-D-pipecolyl-L-piperazin-2-yl-D-(N^α -methyl)phenylalanyl-L-prolyl]] (cyclo(I[dPip][Pip(4-aza)][dNMeF]P[d2Nal])) | 15000 | – | 3.9 | – | IC50 [2, 6]: 335 nM |
| CC[C@H](C)[C@@H]1NC(=O)[C@@H](Cc2ccccc2)NC(=O)[C@@H]2CCCN2C(=O)[C@@H](Cc2ccccc2)N(C)C(=O)[C@H](CCCNC(=N)N)NC(=O)[C@H]2CCC=NN2C1=O [Example 131, c-[D-phenylalanyl-L-isoleucyl-D-Δ-piperazyl-L-arginyl-D-(Nα-methyl)-phenylalanyl-L-prolyl]trifluoroacetate salt] (cyclo(I[dPiz(1,6-dehydro)]R[dNMeF]P[dF])) | 400 | – | 7.2 | – | IC50 [2, 6]: 500 nM |
| CC[C@H](C)[C@@H]1NC(=O)[C@@H](Cc2c[nH]cn2)NC(=O)[C@@H]2CCCN2C(=O)[C@@H](Cc2ccccc2)N(C)C(=O)[C@@H]2CCCCN2C(=O)[C@H]2CCCCN2C1=O [Example 4, Cyclo[D-histidyl-L-isoleucyl-D-pipecolyl-L-pipecolyl-D-(N^α -methyl)-phenylalanyl-L-prolyl]] (cyclo(I[dPip][Pip][dNMeF]P[dH])) | – | > 10000 | > 10000 | > 10000 | – |
| CC[C@H](C)[C@@H]1NC(=O)[C@@H](Cc2ccccc2)NC(=O)[C@@H]2CCCN2C(=O)[C@@H](Cc2ccccc2)N(C)C(=O)[C@H](Cc2cnc[nH]2)NC(=O)[C@H]2CCCCN2C1=O [Example 13] (cyclo(H[dNMeF]P[dF]I[dPip])) | – | – | 150 | > 1000 | IC50 [2, 9]: > 1000 nM |
| CC[C@H](C)[C@@H]1NC(=O)[C@@H](Cc2ccccc2)NC(=O)[C@@H]2CCCN2C(=O)[C@@H](Cc2ccc(O)cc2)N(C)C(=O)[C@@H]2CCCCN2C(=O)[C@H]2CCCCN2C1=O [Example 46, Cyclo[D-phenylalanyl-L-isoleucyl-D-pipecolyl-L-pipecolyl-D-(N^α Methyl)tyrosyl-L-prolyl]] (cyclo(I[dPip][Pip][dNMeY]P[dF])) | – | – | – | 10000 | IC50 [2, 9]: > 1000 nM; inhibition at 0.1 µM ([3]; 1 h, @ 100 (nM), read-out: [^3 H]OT: percent inhibition of radioligand at the given concentration): 60% |
| CC[C@H](C)[C@@H]1NC(=O)[C@@H](Cc2c[nH]c3ccccc23)NC(=O)[C@@H]2CCCN2C(=O)[C@@H](Cc2ccccc2)N(C)C(=O)[C@H](CCCCNC(=O)OCc2ccccc2)NC(=O)[C@H]2CCCCN2C1=O [Example 35, Cyclo[D-tryptophanyl-L-isoleucyl-D-pipecolyl-L-(carbobenzyloxy)lysyl-D-(N^α Methyl)phenylalanyl-L-prolyl]] (cyclo(I[dPip]K(Cbz)[dNMeF]P[dW])) | – | 10000 | > 100 | 10000 | – |
| CC[C@H](C)[C@@H]1NC(=O)[C@@H](Cc2ccccc2)NC(=O)[C@@H]2CCCN2C(=O)[C@@H](Cc2ccccc2)NC(=O)[C@@H]2CNCCN2C(=O)[C@H]2CNCCN2C1=O [Example 80, c-[D-Phenylalanyl-L-isoleucinyl-D-piperazin-2-yl-L-piperazin-2-yl-D-phenylalanyl-L-prolyl]] (cyclo(I[dPip(4-aza)][Pip(4-aza)][dF]P[dF])) | – | > 10000 | 10000 | > 10000 | – |
| CN1C(=O)[C@@H]2CCCCN2C(=O)[C@H]2CCCCN2C(=O)[C@H](Cc2ccccc2)NC(=O)[C@@H](Cc2c[nH]c3ccccc23)NC(=O)[C@@H]2CCCN2C(=O)[C@H]1Cc1ccccc1 [Example 31, Cyclo[D-Tryptophanyl-L-phenylalanyl-D-pipecolyl-L-pipecolyl-D-(N^α -methyl)phenylalanyl-L-prolyl]] (cyclo(F[dPip][Pip][dNMeF]P[dW])) | – | – | 100 | > 10000 | IC50 [2, 9]: > 1000 nM |
| CC[C@H](C)[C@@H]1NC(=O)[C@@H](Cc2c[nH]c3ccccc23)NC(=O)[C@@H]2CCCN2C(=O)[C@@H](Cc2c[n+](C)cn2C)NC(=O)[C@@H]2CCCCN2C(=O)[C@H]2CCCCN2C1=O [Example 18, Cyclo[D-tryptophanyl-L-isoleucyl-D-pipecolyl-L-pipecolyl-D-[im-(CH3)2]^+ histidyl-L-prolyl] trifluoroacetate] (cyclo(I[dPip][Pip][X8]P[dW])) | – | > 10000 | 450 | > 1000 | – |
| CC[C@H](C)[C@@H]1NC(=O)[C@@H](Cc2ccccc2)NC(=O)[C@@H]2CCCN2C(=O)C(Cc2cccnc2)NC(=O)[C@@H]2CCCCN2C(=O)[C@H]2CCCCN2C1=O (single isomer, unassigned) [Example 10 (isomer 1), Cyclo[D-Phe-L-Ile-D-Pip-L-Pip-D,L-3-PyrAla-L-Pro]] | – | > 10000 | 1000 | > 10000 | – |
| CCCC[C@@H]1NC(=O)[C@@H](Cc2c[nH]c3ccccc23)NC(=O)[C@@H]2CCCN2C(=O)[C@@H](Cc2c[nH]cn2)NC(=O)[C@@H]2CCCCN2C(=O)[C@H]2CCCCN2C1=O [Example 20, Cyclo[D-tryptophanyl-L-Norleucyl-D-pipecolyl-L-pipecolyl-D-histidyl-L-prolyl]] (cyclo([Nle][dPip][Pip][dH]P[dW])) | – | – | 72 | > 1000 | IC50 [2, 9]: > 1000 nM |
| CC[C@H](C)[C@@H]1NC(=O)[C@@H](Cc2c[nH]c3ccccc23)NC(=O)[C@@H]2CCCN2C(=O)[C@@H](Cc2ccccc2)N(C)C(=O)[C@@H]2CN(CC(=O)OC(C)(C)C)CCN2C(=O)[C@H]2CCCCN2C1=O [Example 180, C-[D-Tryptophanyl-L-isoleucinyl-D-pipecolyl-L-piperazin-2-yl (4-t-butylacetyl)-D-(N^α -Me)phenylalanyl-L-prolyl]] (cyclo([dW]I[dPip][X5][dNMeF]P)) | – | – | 150 | – | [^3 H]-AVP-V1: percent inhibition of radioligand at the given concentration ([1]; @ 10,000 (nM)): 44%; inhibition at 10 µM ([2]; 0.5 h, @ 10,000 (nM), read-out: [^3 H]-AVP-V2: percent inhibition of radioligand at the given concentration): 79% |
| CC[C@H](C)[C@@H]1NC(=O)[C@@H](Cc2ccccc2)NC(=O)[C@@H]2CCCN2C(=O)[C@@H](Cc2ccccc2)N(C)C(=O)[C@@H]2C=CCCN2C(=O)[C@H]2CCCCN2C1=O [Example 23, Cyclo[D-phenylanyl-L-isoleucyl-D-pipecolyl-L-(3,4-dehydro)-pipecolyl-D-(N^α methyl)phenylalanyl-L-prolyl]] (cyclo(I[dPip][X3][dNMeF]P[dF])) | – | > 10000 | 625 | > 10000 | – |
| CC[C@H](C)[C@@H]1NC(=O)[C@@H](Cc2ccccc2)NC(=O)[C@@H]2CCCN2C(=O)[C@@H](Cc2ccccc2)NC(=O)[C@H]2CNCCN2C(=O)[C@H]2CCCCN2C1=O [Example 78, c-[D-Phenylalanyl-L-isoleucinyl-D-pipecolyl-D-piperazin-2-yl-D-phenylalanyl-L-prolyl]] (cyclo(I[dPip][dPip(4-aza)][dF]P[dF])) | 7900 | > 10000 | 300 | – | – |
| CC[C@H](C)[C@@H]1NC(=O)[C@@H](Cc2ccccc2)NC(=O)[C@@H]2CCCN2C(=O)[C@@H](Cc2ccccc2)N(C)C(=O)[C@H](CCCNC(=O)OC(C)(C)C)NC(=O)[C@H]2CCC=NN2C1=O [Example 124, c-[D-Phenylalanyl-L-isoleucyl-D-Δ-piperazyl(N^δ -Boc)-L-orinthyl-N-methyl-D-δ-phenyl-alaninyl-L-prolyl]] (cyclo(I[dPiz(1,6-dehydro)][Orn](Boc)[dNMeF]P[dF])) | 2700 | – | 17.5 | – | IC50 [2, 6]: 3600 nM |
| CC[C@H](C)[C@@H]1NC(=O)[C@@H](Cc2c[nH]c3ccccc23)NC(=O)[C@@H]2CCCN2C(=O)[C@@H](Cc2ccccc2)N(C)C(=O)[C@@H]2CNCCN2C(=O)[C@H]2CCC=NN2C1=O [Example 170, c-[D-Tryptophanyl-L-isoleucinyl-D-Δ-piperazyl-L-piperazin-2-yl-N^α -Me-D-phenylalanyl-L-prolyl]] (cyclo(I[dPiz(1,6-dehydro)][Pip(4-aza)][dNMeF]P[dW])) | 6850 | – | 3.1 | – | IC50 [2, 6]: 175 nM |

— US5225528A, “Cyclic hexapeptide oxytocin antagonists” (priority 1990, dated 1993)
